Test results as given in patent US12029755B2, “Carbon monoxide-based therapies and implantable devices for the treatment of vascular disease” (THE REGENTS OF THE UNIVERSITY OF MICHIGAN, priority 2017, dated 2024).

How the values were obtained:
humans = conditions: dose up to 500 ppm, clinical trials; cited from earlier work
[1] = tested on: heme oxygenase-1 expression; experiment: HO-1 expression in sham-operated WT IVC by quantitative RT-PCR and immunoblotting; format: in vivo, mouse; conditions: CO exposure (inhaled CO or CORM), sham-operated WT IVC compared with normoxic controls
Description: Also, it was determined that CO exposure (inhaled CO or CORM) induces heme oxygenase-1 expression in sham-operated WT IVC compared with normoxic controls by quantitative RT-PCR and immunoblotting. Therefore, inhaled CO can trigger a venous anti-inflammatory and anti-thrombotic program. Also, whether CO or CORM treatment alone is sufficient to rescue HO-1^−/− mice from exaggerated early venous thrombosis was assessed. HO-1^−/− mice undergo venous stasis or stenosis thrombus induction, followed by CORM or inhaled CO treatment. Thrombus size was measured at the time of expected peak thrombus burden.

WT mice = experiment: IVC ligation (stasis) model of venous thrombosis with inhaled CO exposure; format: in vivo, mouse; conditions: for Venous stasis thrombus burden / Vessel wall leukocyte infiltration: 7 d inhaled CO, 250 ppm for 1 hour twice daily, after IVC ligation, vs normoxia-treated controls
Description: Carbon monoxide was focused on for these studies because it is an end product from heme degradation by HO-1.
The effect of CO on large vein thrombogenesis was determined. WT mice undergo venous thrombus induction by stasis or stenosis, followed by exposure to inhaled CO (250 ppm) for one hour twice daily. […] Thrombus burden was assessed as in SA1 indirectly (ultrasound, FIG. 6) and directly (thrombus weight/length), at pre-determined time points after surgery (1 d, 2 d, 7 d, 10 d, 21 d).
The mouse makes an excellent animal model of stasis-induced venous thrombosis. Mice, weighing 20 to 30 g, were anesthetized with an inhalation mixture of isoflurane gas (1.5% to 2%) and oxygen (100%), placed in dorsal recumbency and aseptically prepped for surgery. A midline laparotomy was made, the small bowel was exteriorized from the body cavity and moved slightly to the left of the animal, and then the IVC was directly approached by careful blunt dissection. Blunt dissection was facilitated using a sterile applicator swab and extra delicate half curved tissue forceps. Care was taken in handling mouse tissue due to its fragility. Periodically, the exteriorized bowel was moistened with sterile saline to prevent its desiccation. For consistent thrombus formation (90 to 95%), ligation of the IVC with a 7-0 prolene below the renal veins, ligation of an occasional side venous branch and cauterization of a deep posterior branch was performed if indicated to account for normal variation in anatomy. The laparotomy incision was closed in a 2-layer fashion using a 5-0 nonreactive suture material and VetBond glue (3M). Harvest of the IVC was performed at pre-determined time points.
Inhaled Carbon monoxide exposure: Mice were randomly assigned to the normoxia or carbon monoxide exposure group prior to IVC ligation or stenosis surgery. The carbon monoxide group was exposed to 250 ppm CO at a flow rate of 10 L/min for 1 h twice daily. One cohort of mice received “pre-conditioning” with CO exposure 1 day prior to surgery. To achieve 75% O2, 100% O2 is delivered at a flow rate of 0.5 l/min into a custom-made 1.5-m^3 plastic chamber. Oxygen concentrations were monitored continuously with an oxygen analyzer (Neutronics, Exton, PA), gas lines were filtered with activated charcoal to remove excess ammonia, and calcium chloride used to maintain CO2 levels below 0.05%. A CO analyzer (Ntron model 1100; Neutronics, Exton, PA) were used to monitor CO levels continuously in the chamber.

C57B/6J mice = experiment: IVC flow-restriction (stenosis) model of venous thrombosis; format: in vivo, mouse
Description: To determine whether carbon monoxide-releasing molecules can be used as a therapeutic in prevention of flow-restriction mediated venous thrombosis (a model of venous thrombosis that mimics human venous clot, unlike IVC ligation), mice were injected with CORM-3 (Sigma SML0496, 10 mg/kg intraperitoneal injection) and subjected to IVC flow-restriction to induce thrombosis. Remarkably, CORM-3 treated mice developed no venous thrombus (0%, n=5) compared with controls (48%, n=21. P=0.001).
“Flow restriction” (Stenosis) thrombosis model: Partial IVC stenosis Model of Venous Thrombosis (FIG. 5) This model is a “flow-restriction” (or “stenosis) model in which the lumen is reduced by ˜90%. This model invokes disturbed flow at the stenosis site as a model for turbulent flow in venous valve pockets, where thrombi frequently develop. It also has applications to human venous “impingement” conditions, such as May Thurner syndrome. Mice, weighing 20 to 30 g, were anesthetized using an inhalation mixture of isoflurane gas (1.5%-2%) and oxygen (100%), placed in dorsal recumbence, and the IVC was approached directly via a midline laparotomy utilizing aseptic technique. A 7-0 Prolene suture (Ethicon, Inc. Somerville, NJ) was fastened around the IVC over a blunted 30-gauge needle (which serves as a spacer). […] Mice were humanely euthanized and thrombus formation assessed 2-7 days after laparotomy.

[C-]#[O+] [CO, carbon monoxide]
Safety of inhaled CO dose (humans): safe
Heme oxygenase-1 expression in IVC [1]: induces
Venous stasis thrombus burden (WT mice): reduced
Vessel wall leukocyte infiltration (WT mice): reduced
Venous stasis thrombus burden (WT mice; listed as carbon monoxide): profound reduction
Vessel wall leukocyte infiltration (WT mice; listed as carbon monoxide): profound reduction
Thrombus size at 7 days (WT mice; WT mice, thrombus induction by stasis or stenosis, inhaled CO 250 ppm one hour twice daily): robust reduction

NCC(=O)O.[CH+]=O.[CH+]=O.[CH+]=O.[Cl][Ru] [CORM-3, tricarbonylchloro(glycinato)ruthenium (II)]
Protection from venous thrombus compared with controls (C57B/6J mice; C57B/6J mice treated with CORM-3, VT induction by IVC flow-restriction): protected from venous thrombus
Frequency of clot (venous thrombus) (C57B/6J mice; CORM-3 10 mg/kg intraperitoneal injection, IVC flow-restriction, n=5, controls 48% (n=21)): 0%
